Test results reported in the supplement of paper PMC9663587.

What was measured:
[1] = compound: CCc1cnn2c(NCc3ccc[n+]([O-])c3)cc(N3CCCC[C@H]3CCO)nc12
LEE011/Ribociclib [2] = compound: T1, CN(C)C(=O)c1cc2cnc(Nc3ccc(N4CCNCC4)cn3)nc2n1C1CCCC1 [LEE011/Ribociclib]
Doxorubicin = compound: COc1cccc2c1C(=O)c1c(O)c3c(c(O)c1C2=O)C[C@@](O)(C(=O)CO)C[C@@H]3O[C@H]1C[C@H](N)[C@H](O)[C@H](C)O1 [Doxorubicin]
Pictilisib/GDC0941 = compound: CS(=O)(=O)N1CCN(Cc2cc3nc(-c4cccc5[nH]ncc45)nc(N4CCOCC4)c3s2)CC1 [Pictilisib/GDC0941]
Ceritinib/LDK378 = compound: Cc1cc(Nc2ncc(Cl)c(Nc3ccccc3S(=O)(=O)C(C)C)n2)c(OC(C)C)cc1C1CCNCC1 [Ceritinib/LDK378]
[3] = compound: Cc1nn(C)c(COc2ccc(N3CCN(S(=O)(=O)N(C)C)CC3)cc2)c1-c1cccc2c(CCCOc3cccc4ccccc34)c(C(=O)O)n(CCN3CCOCC3)c12
YKL-5-124 = compound: C=CC(=O)Nc1ccc(C(=O)Nc2[nH]nc3c2CN(C(=O)N[C@H](CN(C)C)c2ccccc2)C3(C)C)cc1 [YKL-5-124]; test: increase in dead-cell fraction, 72 h; higher = more death;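 further: breast cancer cell lines in 384-well plates, stained with Hoechst plus LIVE/DEAD far red dye and imaged, cells above an LDR intensity threshold counted dead, Hoechst-negative corpses included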
BSJ-03-123 = compound: CC(=O)c1c(C)c2cnc(Nc3ccc(N4CCN(CCOCCOCCOCCNC(=O)COc5cccc6c5C(=O)N(C5CCC(=O)NC5=O)C6=O)CC4)cn3)nc2n(C2CCCC2)c1=O [BSJ-03-123]; test: as above
[4] = compound: CC(=O)c1c(C)c2cnc(Nc3ccc(N4CCNCC4)cn3)nc2n(C2CCCC2)c1=O; test: as above
[5] = compound: CCN1CCN(Cc2ccc(Nc3ncc(F)c(-c4cc(F)c5nc(C)n(C(C)C)c5c4)n3)nc2)CC1; test: as above
Neratinib/HKI272 = compound: CCOc1cc2ncc(C#N)c(Nc3ccc(OCc4ccccn4)c(Cl)c3)c2cc1NC(=O)/C=C/CN(C)C [Neratinib/HKI272]; test: as above
[6] = compound: CCc1cnn2c(NCc3ccc[n+]([O-])c3)cc(N3CCCC[C@H]3CCO)nc12; test: as above
LEE011/Ribociclib [7] = compound: T1, LEE011/Ribociclib; test: as above
THZ531 = compound: CN(C)C/C=C/C(=O)Nc1ccc(C(=O)N2CCC[C@@H](Nc3ncc(Cl)c(-c4c[nH]c5ccccc45)n3)C2)cc1 [THZ531]; test: as above
THZ1 = compound: CN(C)C/C=C/C(=O)Nc1ccc(C(=O)Nc2cccc(Nc3ncc(Cl)c(-c4c[nH]c5ccccc45)n3)c2)cc1 [THZ1]; test: as above
Flavopiridol = compound: CN1CC[C@H](c2c(O)cc(O)c3c(=O)cc(-c4ccccc4Cl)oc23)[C@H](O)C1 [Flavopiridol]; test: as above
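Wherever GR50, 72 h is given: breast cancer and non-malignant breast epithelial cell lines, Deep Dye Drop or Dye Drop imaging, nine half-log doses, GR normalized to time-zero plates and DMSO-only controls.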

In the case of PDX1328, the “GR50, 72 h” value [1] is reported as 0.0148 µM, the “GR50, 72 h” value (LEE011/Ribociclib [2]) is reported as 0.349 µM and the “GR50, 72 h” value (Doxorubicin) is reported as 0.024 µM. The “GR50, 72 h” value (Pictilisib/GDC0941) was 0.878 µM, the “GR50, 72 h” value (Ceritinib/LDK378) was 0.629 µM and the “GR50, 72 h” value [3] was over 10 µM. The “increase in dead-cell fraction” value (YKL-5-124; 0.001 µM) was 0.0057, the “increase in dead-cell fraction” value (YKL-5-124; 0.003162 µM) was 0.0011 and the “increase in dead-cell fraction” value (YKL-5-124; 0.01 µM) was 0.0128. The “increase in dead-cell fraction” value (YKL-5-124; 0.03162 µM) was 0.0082, the “increase in dead-cell fraction” value (YKL-5-124; 0.1 µM) was 0.0045 and the “increase in dead-cell fraction” value (YKL-5-124; 0.3162 µM) was 0.0085. The “increase in dead-cell fraction” value (YKL-5-124; 1 µM) was 0.0121, the “increase in dead-cell fraction” value (YKL-5-124; 3.162 µM) was 0.0229 and the “increase in dead-cell fraction” value (YKL-5-124; 10 µM) was 0.0663. The “increase in dead-cell fraction” value (BSJ-03-123; 0.001 µM) was -0.0042, the “increase in dead-cell fraction” value (BSJ-03-123; 0.003162 µM) was -0.0045 and the “increase in dead-cell fraction” value (BSJ-03-123; 0.01 µM) was -0.0076. For the same cell line, the “increase in dead-cell fraction” value (BSJ-03-123; 0.03162 µM) was -0.0013, the “increase in dead-cell fraction” value (BSJ-03-123; 0.1 µM) was -0.006 and the “increase in dead-cell fraction” value (BSJ-03-123; 0.3162 µM) was -0.0065. For the same cell line, the “increase in dead-cell fraction” value (BSJ-03-123; 1 µM) was -0.0104, the “increase in dead-cell fraction” value (BSJ-03-123; 3.162 µM) was -0.0015 and the “increase in dead-cell fraction” value (BSJ-03-123; 10 µM) was 0.0283. The “increase in dead-cell fraction” value ([4]; 0.0003162 µM) was -0.0028, the “increase in dead-cell fraction” value ([4]; 0.001 µM) was 0.0004 and the “increase in dead-cell fraction” value ([4]; 0.003162 µM) was -0.0023. For the same cell line, the “increase in dead-cell fraction” value ([4]; 0.01 µM) was 0.0019, the “increase in dead-cell fraction” value ([4]; 0.03162 µM) was -0.005 and the “increase in dead-cell fraction” value ([4]; 0.1 µM) was 0.0014. For the same cell line, the “increase in dead-cell fraction” value ([4]; 0.3162 µM) was -0.0028, the “increase in dead-cell fraction” value ([4]; 1 µM) was 0.0026 and the “increase in dead-cell fraction” value ([4]; 3.162 µM) was 0.0055. For the same cell line, the “increase in dead-cell fraction” value ([5]; 0.001 µM) was 0.0018, the “increase in dead-cell fraction” value ([5]; 0.003162 µM) was -0.0052 and the “increase in dead-cell fraction” value ([5]; 0.01 µM) was 0.0039. For the same cell line, the “increase in dead-cell fraction” value ([5]; 0.03162 µM) was 0.0167, the “increase in dead-cell fraction” value ([5]; 0.1 µM) was 0.0116 and the “increase in dead-cell fraction” value ([5]; 0.3162 µM) was 0.0089. The “increase in dead-cell fraction” value ([5]; 1 µM) was 0.0192, the “increase in dead-cell fraction” value ([5]; 3.162 µM) was 0.029 and the “increase in dead-cell fraction” value ([5]; 10 µM) was 0.475. The “increase in dead-cell fraction” value (Neratinib/HKI272; 0.0003162 µM) was 0.0026, the “increase in dead-cell fraction” value (Neratinib/HKI272; 0.001 µM) was 0.0005 and the “increase in dead-cell fraction” value (Neratinib/HKI272; 0.003162 µM) was 0.002. The “increase in dead-cell fraction” value (Neratinib/HKI272; 0.01 µM) was -0.0007, the “increase in dead-cell fraction” value (Neratinib/HKI272; 0.03162 µM) was 0.0044 and the “increase in dead-cell fraction” value (Neratinib/HKI272; 0.1 µM) was 0.0093. For the same cell line, the “increase in dead-cell fraction” value (Neratinib/HKI272; 0.3162 µM) was 0.0044, the “increase in dead-cell fraction” value (Neratinib/HKI272; 1 µM) was 0.0158 and the “increase in dead-cell fraction” value (Neratinib/HKI272; 3.162 µM) was 0.0733. For the same cell line, the “increase in dead-cell fraction” value ([6]; 0.0001 µM) was -0.0005, the “increase in dead-cell fraction” value ([6]; 0.0003162 µM) was 0.0028 and the “increase in dead-cell fraction” value ([6]; 0.001 µM) was -0.0033. The “increase in dead-cell fraction” value ([6]; 0.003162 µM) was -0.0053, the “increase in dead-cell fraction” value ([6]; 0.01 µM) was -0.0021 and the “increase in dead-cell fraction” value ([6]; 0.03162 µM) was 0.113. The “increase in dead-cell fraction” value ([6]; 0.1 µM) was 0.187, the “increase in dead-cell fraction” value ([6]; 0.3162 µM) was 0.19 and the “increase in dead-cell fraction” value ([6]; 1 µM) was 0.213. The “increase in dead-cell fraction” value (LEE011/Ribociclib [7]; 0.001 µM) was -0.0001, the “increase in dead-cell fraction” value (LEE011/Ribociclib [7]; 0.003162 µM) was -0.0049 and the “increase in dead-cell fraction” value (LEE011/Ribociclib [7]; 0.01 µM) was -0.0091. The “increase in dead-cell fraction” value (LEE011/Ribociclib [7]; 0.03162 µM) was -0.0001, the “increase in dead-cell fraction” value (LEE011/Ribociclib [7]; 0.1 µM) was 0.0131 and the “increase in dead-cell fraction” value (LEE011/Ribociclib [7]; 0.3162 µM) was 0.0012. For the same cell line, the “increase in dead-cell fraction” value (LEE011/Ribociclib [7]; 1 µM) was -0.0011, the “increase in dead-cell fraction” value (LEE011/Ribociclib [7]; 3.162 µM) was 0.005 and the “increase in dead-cell fraction” value (LEE011/Ribociclib [7]; 10 µM) was 0.0126. The “increase in dead-cell fraction” value (THZ531; 0.0001 µM) was -0.0004, the “increase in dead-cell fraction” value (THZ531; 0.0003162 µM) was -0.0097 and the “increase in dead-cell fraction” value (THZ531; 0.001 µM) was 0.0015. For the same cell line, the “increase in dead-cell fraction” value (THZ531; 0.003162 µM) was 0, the “increase in dead-cell fraction” value (THZ531; 0.01 µM) was 0.003 and the “increase in dead-cell fraction” value (THZ531; 0.03162 µM) was -0.0033. The “increase in dead-cell fraction” value (THZ531; 0.1 µM) was 0.0477, the “increase in dead-cell fraction” value (THZ531; 0.3162 µM) was 0.199 and the “increase in dead-cell fraction” value (THZ531; 1 µM) was 0.186. The “increase in dead-cell fraction” value (THZ1; 0.0001 µM) was -0.0047, the “increase in dead-cell fraction” value (THZ1; 0.0003162 µM) was -0.0031 and the “increase in dead-cell fraction” value (THZ1; 0.001 µM) was -0.0014. The “increase in dead-cell fraction” value (THZ1; 0.003162 µM) was -0.0053, the “increase in dead-cell fraction” value (THZ1; 0.01 µM) was 0.0031 and the “increase in dead-cell fraction” value (THZ1; 0.03162 µM) was 0.0436. The “increase in dead-cell fraction” value (THZ1; 0.1 µM) was 0.123, the “increase in dead-cell fraction” value (THZ1; 0.3162 µM) was 0.225 and the “increase in dead-cell fraction” value (THZ1; 1 µM) was 0.432. For the same cell line, the “increase in dead-cell fraction” value (Flavopiridol; 0.0001 µM) was 0.003, the “increase in dead-cell fraction” value (Flavopiridol; 0.0003162 µM) was -0.0035 and the “increase in dead-cell fraction” value (Flavopiridol; 0.001 µM) was -0.0003. The “increase in dead-cell fraction” value (Flavopiridol; 0.003162 µM) was -0.0025, the “increase in dead-cell fraction” value (Flavopiridol; 0.01 µM) was -0.0027 and the “increase in dead-cell fraction” value (Flavopiridol; 0.03162 µM) was -0.0044. The “increase in dead-cell fraction” value (Flavopiridol; 0.1 µM) was -0.0014, the “increase in dead-cell fraction” value (Flavopiridol; 0.3162 µM) was 0.0342 and the “increase in dead-cell fraction” value (Flavopiridol; 1 µM) was 0.348.
